Consider two compounds from US20260014129A1, “MITOCHONDRIAL PYRUVATE METABOLISM INHIBITORS FOR TREATING CHRONIC MYELOID LEUKEMIA” (The University Court of the University of Glasgow, priority 2022, published 2026).

The structures appear in SMILES notation.

Data set [1] can be described thus: Body weight of xenografted NRG-W41 mice during treatment. The note with it: 4 weeks. How it is done: For in vivo engraftment, 1 million CML CD34^+ cells, were transplanted via tail vein into sublethally irradiated (2.5Gy) female NRG-W41 (NOD.Cg-Rag1^tm1MomKit^W-41JIl2rg^tm1Wjl)) mice aged 8-10 weeks. Mice were housed under conditions of alternating 12 hours light and 12 hours darkness, at 20-24° C., 45-65% humidity, with feeding (LBS biotech: SDS Cat #SDS801730) and water ad libitum.
For treatment with imatinib plus MSDC-0160, eight weeks following transplant, drug treatment was started with both imatinib (LC Laboratories, Cat #1-5508) dosed at 100 mg/kg/day (50 mg per kg body weight BID) oral gavage and MSDC-0160 (30 mg/kg; oral gavage once daily). Treatment was given for 4 weeks.

For a further data set, the system named is phospho-AMPK. As to the kind of experiment: Western blot of AMPK and phospho-AMPK in CD34+ CML cells. Format: cell-based, human. The settings on record: imatinib-treated patient samples, 24 hours. On the technique in general: Immunoblotting shows a protein as a band on a membrane.
The next data set relates to K562 cells. As to the kind of experiment: Viability (Annexin V/7AAD) and CFC assays of vector control versus PC knockout K562 cells. The class given is cell-based, human. The settings on record: 72 hours; 600 nm imatinib or 100 nm omacetaxine. How it is done:
(a) Western blot of PC and loading control (tubulin) from vector control or PC knockout K562 cells. (b) Proliferation of K562 cells from A. Shown is average and SEM from 3 independent experiments. (c) Fractional labelling from ^13C6 glucose into indicated metabolites of PC knockout cells are shown (n=3) after 24 hours. Plots were generated using Autoplotter, average and SD are plotted. Statistical analyses were conducted on the m+5 fraction. An ordinary one-way ANOVA was used with Dunnett's test used to correct for multiple comparisons. (d) Cells viability was measured using Annexin V and 7AAD. Cells were either left untreated (UT) or exposed for 72 hours to 600 nm imatinib or 100 nm omacetaxine (OMA). Shown is average and SEM from 4 independent experiments. An ordinary one-way ANOVA was used with Dunnett's test used to correct for multiple comparisons. (e) Colony Forming Cell (CFC) potential of control and […] cells. Cells were either left untreated (UT) or exposed for 72 hours to 600 nm imatinib. Shown is average and SEM from 4 independent experiments. An ordinary one-way ANOVA was used with Dunnett's test used to correct for multiple comparisons. […]

Data set [2] deals with CML CD34+ cells. As to the kind of experiment: RNA-seq differential gene expression and GSEA of imatinib-treated CML CD34+ cells. The settings on record: imatinib 2 μM, 48 hours. Format: cell-based, human. How it is done: RNA was extracted from 200,000 CML CD34+ cells using an RNA easy mini kit (Qiagen) according to the manufacturer's instructions.
Libraries were prepared using the Illumina TruSeq Stranded mRNA LT Kit (Illumina) and run on the Illumina Next Seq 500 using the High Output 75 cycles kit (2×36 cycles, paired end reads, single index; Illumina). FastQ files were generated using Illumina's bcl2fastq (v. 2.20.0.422).
QC, alignment, and parsing of files into count matrices was performed in command line, with subsequent differential gene expression (DGE) analysis performed in R (1.2.1335). Adapter trimming was performed using Scythe (version 0.981), and Sickle (version 0.940), was used to trim bases with quality scores of less than 20. Prior to and after this pre-processing fastqc (version 0.11.2) was run to ascertain sequence quality, alongside the efficacy of the pre-processing steps. Trimmed reads were indexed and aligned using Hisat2 (version 2.1.0). Hisat2 indexes (GRCh38 genome_tran) were obtained from the John Hopkins Center for Computational Biology, 2020. Samtools (version 0.1.19044428cd) view was used to convert the resulting .sam to .bam files, whilst samtools sort was used to sort the .bam files. Assembly was achieved through the use of stringtie (John Hopkins Center for Computational Biology, 2020), with output .gtf files converted to count matrices using the python script prepDE.py (stringtie version 1.3.3b.Linux_x86_64). Reads were assembled using an annotated reference human genome (GRCh38.p13), obtained from GENCODE (GENECODE, 2020). DESeq2 (version 1.26.0) was used to generate results sets from the gene and transcript count matrices. G genes with read counts too low to allow for the calculation of p and adjusted p-values (padj: Benjamini-Hochberg) were removed from the data sets leaving gene and transcript counts of sizes 16,069 and 45,218 respectively.
GSEA (version 4.1) was conducted on pre-ranked lists (ranked by pi score calculated by multiplying LOG fold change by −LOG (corrected p-value)).

Data set [3] concerns CML CD34+ cells. Put plainly: Proliferation (cell doubling time) and apoptosis (Annexin V/7-AAD) of primary CML CD34+ cells. The settings on record: imatinib 2 μM.

Experimental for phospho-AMPK: Cells were lysed in RIPA buffer containing mini-Complete protease inhibitor cocktail and phosphatase inhibitors (both Roche). Total protein concentration was quantified using a Pierce BCA kit (Thermo Fisher Scientific: 23227). Equal amounts of protein (5-7.5 μg) were heated at 95° C. for 5 min and separated (120V) in 4-12% gels (Novex) for SDS-PAGE. Proteins were transferred onto PDVF membranes (Thermo Fisher Scientific: 21882) then blocked in 2% BSA (in Tris-buffered saline, 0.01% Tween (TBS-T)) for one hour. Next, membranes were incubated overnight at 4° C. with the primary antibodies. The membranes were rinsed three times with TBS-T, then incubated with secondary HRP-linked antibodies (1:10,000) for 1 hour at room temperature. The SuperSignal West Femto Maxi detection system was used (Thermo Fisher Scientific: 34095) and imaging was carried out using a LI-COR Odyssey Fc gel-doc system.

As to `CCc1ccc(C(=O)COc2ccc(CC3SC(=O)NC3=O)cc2)nc1` (stereo not drawn) [MSDC-0160], in data set [1] (imatinib 50 mg/kg BID or MSDC-0160 30 mg/kg/day, oral gavage), the “tolerability (body weight throughout the study), single agent arms” value is on record as “well tolerated”. Besides, the “tolerability (body weight throughout the study), combination arm” value in data set [1] (imatinib 50 mg/kg BID plus MSDC-0160 30 mg/kg/day) is listed as “well tolerated”.

Consider `Cc1ccc(NC(=O)c2ccc(CN3CCN(C)CC3)cc2)cc1Nc1nccc(-c2cccnc2)n1` [imatinib], for which the “AMPK and phospho-AMPK protein levels” value in the data set on phospho-AMPK is given as “variable depending on patient sample”. Also, the “sensitisation of K562 to the drug by PC ablation, viability and CFC assays” value in the data set with K562 cells is given as “sensitised”. For the same compound, in the data set on CML CD34+ cells [2] (Hallmark gene sets), the “most downregulated pathways in GSEA” value is “oxidative phosphorylation, glycolysis, and fatty acid oxidation”. In addition, in the data set with CML CD34+ cells [2] (paired transcriptomic data), the PC transcript level result was “no change” and the PDH transcript level result is on record as “downregulation”. Besides, in the data set with CML CD34+ cells [3] (primary CML CD34+ cells in Plasmax, p-value=0.0659), the “cell proliferation (cell doubling time)” value is given as “inhibited cell proliferation”. For the same compound, the level of apoptosis entry with CML CD34+ cells [3] (primary CML CD34+ cells, p-value=0.081) is “modest, sample-dependent increase in the level of apoptosis”.
